Earlier results as cited in paper PMC2365120, “Antitumour Metallocenes: Effect of DMSO on the Stability of Cp2TiX2 and Implications for Anticancer Activity” (Metal-Based Drugs, 1998).
Like-named read-outs stand apart in the source and are kept apart here.

Assays:
[1] = tested on: fluid Ehrlich ascites tumour; conditions: for Optimum Cure Rate (%) / Optimum dose range: fluid Ehrlich ascites tumour, samples administered in 10%DMSO/saline
[2] = samples administered in 10%DMSO/saline
[3] = for % Cp hydrolysis: Table 3, D2O (pD ~2-3), reaction time 24 h

| Compound | Optimum Cure Rate (%) ([1]; Table 1, Cp2TiX2) | Optimum dose range ([1]; Table 1, Cp2TiX2) | LD50 ([2]; Table 1, Cp2TiX2) [mg/kg] | further results |
| --- | --- | --- | --- | --- |
| [I][Ti+2][I].c1cc[cH-]c1.c1cc[cH-]c1 [Compound 4] | 100 | 60-100 mg/kcj | 145 | – |
| Fc1c(F)c(F)c([O][Ti+2][O]c2c(F)c(F)c(F)c(F)c2F)c(F)c1F.c1cc[cH-]c1.c1cc[cH-]c1 [Compound 11] | 100 | 340-360 mg/kcj | 480 | – |
| Fc1c(F)c(F)c([S][Ti+2][S]c2c(F)c(F)c(F)c(F)c2F)c(F)c1F.c1cc[cH-]c1.c1cc[cH-]c1 [Compound 12] | 100 | 120-180 mg/kcj | 260 | – |
| C[C@H]([NH3+])C(=O)[O][Ti+2][O]C(=O)[C@H](C)[NH3+].[Cl-].[Cl-].c1cc[cH-]c1.c1cc[cH-]c1 [Compound 14] | 50 | 160 mg/kcj | 185 | Aqueous solubility: highly water soluble |
| [F][Ti+2][F].c1cc[cH-]c1.c1cc[cH-]c1 [Compound 2] | 100 | 40 mg/kcj | 60 | – |
| Cc1ccccc1[S][Ti+2][Cl].c1cc[cH-]c1.c1cc[cH-]c1 [Compound 16] | – | – | – | Optimum Cure Rate (%) ([1]; Table 2, Cp2TiClX): 25%; Optimum dose range ([1]; Table 2, Cp2TiClX): 30 to 60 mg/kg |
| [Br][Ti+2][Br].c1cc[cH-]c1.c1cc[cH-]c1 [Compound 3] | 100 | – | 135 | – |
| [Cl-].[Cl-].[NH3+]CC(=O)[O][Ti+2][O]C(=O)C[NH3+].c1cc[cH-]c1.c1cc[cH-]c1 [Compound 13, titanocene bis(glycine)] | 50 | – | > 160 | % Cp hydrolysis [3]: < 2% |
| O=[N+]([O-])c1ccc([O][Ti+2][O]c2ccc([N+](=O)[O-])cc2)cc1.c1cc[cH-]c1.c1cc[cH-]c1 [Compound 10] | 10 | 180-240 mg/kcj | 260 | – |
| [Cl-].[Cl-].[Ti+4].c1cc[cH-]c1.c1cc[cH-]c1 [Compound 1, Titanocene dichloride, reference compound] | 100 | 40-60 mg/kcj | 100 | % Cp hydrolysis [3]: 0%; Time the Cp rings remain metal bound ([3]; in water, low pH after halide hydrolysis): over 24 h |
| S=C=[N][Ti+2][N]=C=S.c1cc[cH-]c1.c1cc[cH-]c1 [Compound 5] | 100 | 80 mg/kcj | 135 | – |
| Nc1ccccc1[S][Ti+2][Cl].c1cc[cH-]c1.c1cc[cH-]c1 [Compound 17] | – | – | – | Optimum Cure Rate (%) ([1]; Table 2, Cp2TiClX): 13%; LD50 ([2]; Table 2, Cp2TiClX): 100 mg/kg |
| [Cl][Ti+2][O]c1ccc(Cl)c(Cl)c1Cl.c1cc[cH-]c1.c1cc[cH-]c1 [Compound 15] | – | – | – | Optimum Cure Rate (%) ([1]; Table 2, Cp2TiClX): 50%; Optimum dose range ([1]; Table 2, Cp2TiClX): 60 to 140 mg/kg; LD50 ([2]; Table 2, Cp2TiClX): 200 mg/kg |
| O=C(O)/C=C\C(=O)[O][Ti+2][O]C(=O)/C=C\C(=O)O.c1cc[cH-]c1.c1cc[cH-]c1 [Compound 9] | 100 | 60-120 mg/kcj | 170 | Aqueous solubility: increase in aqueous solubility |
| [Cl][Ti+]([Cl])[Cl].c1cc[cH-]c1 [CpTiCI3, reference compound] | – | – | – | Antitumour activity ([1]; partially hydrolysed derivative lacking one Cp ring): reduced activity |
| O=C(O)C(Cl)(Cl)Cl.O=C(O)C(Cl)(Cl)Cl.[Ti+2].c1cc[cH-]c1.c1cc[cH-]c1 [Compound 8, titanocene bis(trichloroacetate)] | 100 | 100-360 mg/kcj | 440 | Aqueous solubility: poor |
